From ChEMBL document CHEMBL5614382, “Discovery of a new 1-(phenylsulfonyl)-1H-indole derivative targeting the EphA2 receptor with antiproliferative activity on U251 glioblastoma cell line” (Eur J Med Chem, 2024) come the findings set out here.

Assay [1] has as its system LOUCY. The assay can be described thus: Antiproliferative activity against human LOUCY cells assessed as reduction in cell viability at 30 uM measured after 72 hrs by Celltiter-glo ATP based assay. In kind it is functional. For orientation: In ATP-based viability assays light output follows the ATP content of the culture.
Assay [2] relates to U-251. The assay can be described thus: Cytotoxicity against human U-251 cells at upto 30 uM measured after 2 hrs by CytTox 96 non-radioactive cytotoxicity assay. It counts as functional, cell-based.
Assay [3] deals with Ephrin type-A receptor 2 (Homo sapiens) (UniProt P29317). The assay can be described thus: Antagonist activity at EphA2 in human U-251 cells assessed as inhibition of EphA2 phosphorylation at 10 to 30 uM preincubated for 20 mins followed by ephrin-A1-Fc addition and measured after 10 mins by ELISA assay. In kind it is cell-based. The following applies: filed as antagonist, dose 10-30 µM, time 30.0 min. (ELISA stands for enzyme-linked immunosorbent assay.)

Assay [4] has as its system U-251. Put plainly: Antiproliferative activity against human U-251 cells assessed as reduction in cell viability at 30 uM measured after 72 hrs by Celltiter-glo ATP based assay. In kind it is functional.
In assay [5] the test system is LOUCY. Put plainly: Antiproliferative activity against human LOUCY cells harbouring EPHA2 knockout assessed as reduction in cell viability at 1 to 10 uM measured after 72 hrs by Celltiter-glo ATP based assay. In kind it is functional. The following applies: dose 1-10 µM.

SMILES strings stand for the structures. Active and inactive are the calls of the source. The calls are words filed in the database; no cut-off is given here.

Chain of Ephrin type-A receptor 2 (Homo sapiens) (P29317 whole entry): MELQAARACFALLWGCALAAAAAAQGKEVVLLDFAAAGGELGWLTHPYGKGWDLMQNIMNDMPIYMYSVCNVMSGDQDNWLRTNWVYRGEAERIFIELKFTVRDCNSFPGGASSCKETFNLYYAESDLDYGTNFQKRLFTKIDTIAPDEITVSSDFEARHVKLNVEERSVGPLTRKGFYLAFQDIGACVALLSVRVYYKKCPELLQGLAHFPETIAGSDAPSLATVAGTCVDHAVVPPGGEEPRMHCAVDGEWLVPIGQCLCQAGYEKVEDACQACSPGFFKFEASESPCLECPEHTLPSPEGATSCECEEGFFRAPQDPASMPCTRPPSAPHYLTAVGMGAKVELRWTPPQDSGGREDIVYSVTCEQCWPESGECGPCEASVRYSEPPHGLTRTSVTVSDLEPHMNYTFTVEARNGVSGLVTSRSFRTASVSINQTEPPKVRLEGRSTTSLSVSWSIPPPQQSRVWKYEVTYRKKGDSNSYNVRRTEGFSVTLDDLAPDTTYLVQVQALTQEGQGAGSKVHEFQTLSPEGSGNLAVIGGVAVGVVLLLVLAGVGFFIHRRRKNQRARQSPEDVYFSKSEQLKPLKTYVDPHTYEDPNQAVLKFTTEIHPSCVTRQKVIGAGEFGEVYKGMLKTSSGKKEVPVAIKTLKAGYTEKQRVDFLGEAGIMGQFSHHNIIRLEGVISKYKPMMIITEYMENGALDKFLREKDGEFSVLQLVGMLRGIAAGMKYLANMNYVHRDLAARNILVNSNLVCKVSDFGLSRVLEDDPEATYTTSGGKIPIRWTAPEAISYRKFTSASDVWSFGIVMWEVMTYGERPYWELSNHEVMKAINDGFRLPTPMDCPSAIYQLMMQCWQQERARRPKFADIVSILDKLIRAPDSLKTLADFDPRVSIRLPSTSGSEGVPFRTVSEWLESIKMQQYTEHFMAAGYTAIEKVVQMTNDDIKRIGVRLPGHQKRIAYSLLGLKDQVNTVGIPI

`C[C@H](CCC(=O)N[C@H](CC(=O)O)Cc1cn(S(=O)(=O)c2ccc(C(F)(F)F)cc2)c2ccccc12)[C@H]1CC[C@H]2[C@@H]3CC=C4C[C@@H](O)CC[C@]4(C)[C@H]3CC[C@]12C`: the result in assay [1], in assay [3] and in assay [4] was Active. Besides, the result in assay [2] and in assay [5] was inactive.
